# Earlier results, collected in paper PMC2074590 (British Journal of Cancer, 1996).
# Tests used:
# breast cancer cells = test system: breast cancer cells; set-up: method as in Wakeling and Bowler, 1987, 1988; conditions: ref Wakeling and Bowler, 1987, 1988; cited from earlier work
# [1] = ref Willemse et al., 1990; cited from earlier work
# [2] = test system: Ki67, ER, PgR, pS2 in primary breast cancer; conditions: similar clinical experiments; ref Howell et al., 1988; Roberston et al., 1991; Clarke et al., 1993; Nicholson et al., 1994; cited from earlier work
# advanced breast cancer = conditions: ref Cole et al., 1971, Patterson et al., 1981; cited from earlier work
smiles,measurement,setting,value
"CCCCN(C)C(=O)CCCCCCCCCC[C@@H]1Cc2cc(O)ccc2[C@H]2CC[C@]3(C)[C@@H](O)CC[C@H]3[C@H]12 [ICI 164384, reference compound]",Potency as inhibitor of cell growth in vitro relative to tamoxifen,breast cancer cells,up to two orders of magnitude more potent than tamoxifen
CC(=O)O[C@]1(C(C)=O)CC[C@H]2[C@@H]3C=C(C)C4=CC(=O)CC[C@]4(C)[C@H]3CC[C@@]21C [megestrol acetate],Patients with weight gain of > 5% of body weight,[1],25%
"CC/C(=C(\c1ccccc1)c1ccc(OCCN(C)C)cc1)c1ccccc1 [tamoxifen, reference compound]",ER expression,[2],no change in ER expression
same,PgR expression,[2],slightly increased PgR expression
same,Median duration of remission,advanced breast cancer,about 18 months
